Assay results taken from article PMC12028158, “Synthesis and In Vitro Evaluation of the Anticancer Effect of Novel Phosphonium Vindoline Derivatives” (International Journal of Molecular Sciences, 2025).

How the values were obtained:
Format in all cases: cell-based
K-562 = assay: NCI60 one-dose screen; settings: Homo sapiens, K562; K-562, 10 μM, one-dose; read-out: Growth percent
A549/ATCC = assay: NCI60 one-dose screen; settings: Homo sapiens; A549/ATCC, 10 μM, one-dose; read-out: Growth percent
[1] = test system: 60 human tumor cell lines (NCI60); assay: NCI60 five-dose screen, overall mean; settings: 60 cell, mean over all 60 cell lines, read-out: Mean GI50
SW-620 = assay: NCI60 one-dose screen; settings: Homo sapiens; SW-620, 10 μM, one-dose; read-out: Growth percent
UO-31 = assay: NCI60 five-dose screen; settings: Homo sapiens; UO-31, Renal Cancer, five-dose; read-out: GI50
OVCAR-4 = assay: NCI60 one-dose screen; settings: Homo sapiens; OVCAR-4, 10 μM, one-dose; read-out: Growth percent
NCI-H23 = assay: NCI60 five-dose screen; settings: Homo sapiens; NCI-H23, Non-small Cell Lung Cancer, five-dose; read-out: GI50
SF-295 = assay: NCI60 five-dose screen; settings: Homo sapiens; SF-295, CNS Cancer, five-dose; read-out: GI50
Prostate Cancer panel = assay: NCI60 five-dose screen, panel mean; settings: Homo sapiens; mean over Prostate Cancer panel; read-out: Mean GI50
SNB-75 = assay: NCI60 five-dose screen; settings: Homo sapiens; SNB-75, CNS Cancer, five-dose; read-out: GI50
MALME-3M = assay: NCI60 five-dose screen; settings: Homo sapiens; MALME-3M, Melanoma, five-dose; read-out: GI50
SK-OV-3 [2] = assay: NCI60 one-dose screen; settings: Homo sapiens; SK-OV-3, 10 μM, one-dose; read-out: Growth percent
CCRF-CEM = assay: NCI60 one-dose screen; settings: Homo sapiens, 10 μM, one-dose, read-out: Growth percent
HT29 = assay: NCI60 five-dose screen; settings: Homo sapiens, HT-29; HT29, Colon Cancer, five-dose; read-out: GI50
LOX IMVI = assay: NCI60 one-dose screen; settings: Homo sapiens, 10 μM, one-dose, read-out: Growth percent
OVCAR-8 = assay: NCI60 five-dose screen; settings: Homo sapiens; OVCAR-8, Ovarian Cancer, five-dose; read-out: GI50
EKVX = assay: NCI60 one-dose screen; settings: Homo sapiens, 10 μM, one-dose, read-out: Growth percent
MDA-MB-435 = assay: NCI60 one-dose screen; settings: Homo sapiens; MDA-MB-435, 10 μM, one-dose; read-out: Growth percent
SK-MEL-2 [3] = assay: NCI60 five-dose screen; settings: Homo sapiens, SK-MEL-2, SK-MEL-2, Melanoma, five-dose; read-out: GI50
PC-3 [4] = assay: NCI60 one-dose screen; settings: Homo sapiens; PC-3, 10 μM, one-dose; read-out: Growth percent
OVCAR-3 [5] = assay: NCI60 five-dose screen; settings: Homo sapiens; OVCAR-3, Ovarian Cancer, five-dose; read-out: GI50
Melanoma panel = assay: NCI60 five-dose screen, panel mean; settings: Homo sapiens; mean over Melanoma panel; read-out: Mean GI50
SR = assay: NCI60 five-dose screen; settings: Homo sapiens, Leukemia, five-dose, read-out: GI50
PC-3 [6] = assay: NCI60 five-dose screen; settings: Homo sapiens; PC-3, Prostate Cancer, five-dose; read-out: GI50
HCC-2998 [7] = assay: NCI60 one-dose screen; settings: Homo sapiens; HCC-2998, 10 μM, one-dose; read-out: Growth percent
NCI-H522 = assay: NCI60 five-dose screen; settings: Homo sapiens; NCI-H522, Non-small Cell Lung Cancer, five-dose; read-out: GI50
OVCAR-3 [8] = assay: NCI60 one-dose screen; settings: Homo sapiens; OVCAR-3, 10 μM, one-dose; read-out: Growth percent
SNB-19 = assay: NCI60 one-dose screen; settings: Homo sapiens; SNB-19, 10 μM, one-dose; read-out: Growth percent
HOP-92 = assay: NCI60 five-dose screen; settings: Homo sapiens; HOP-92, Non-small Cell Lung Cancer, five-dose; read-out: GI50
MCF7 = assay: NCI60 one-dose screen; settings: Homo sapiens; MCF7, 10 μM, one-dose; read-out: Growth percent
SK-OV-3 [9] = assay: NCI60 five-dose screen; settings: Homo sapiens; SK-OV-3, Ovarian Cancer, five-dose; read-out: GI50
SF-539 = assay: NCI60 five-dose screen; settings: Homo sapiens; SF-539, CNS Cancer, five-dose; read-out: GI50
RXF 393 = assay: NCI60 one-dose screen; settings: Homo sapiens; RXF 393, 10 μM, one-dose; read-out: Growth percent
SK-MEL-2 [10] = assay: NCI60 one-dose screen; settings: Homo sapiens; SK-MEL-2, 10 μM, one-dose; read-out: Growth percent
HL-60(TB) = assay: NCI60 one-dose screen; settings: Homo sapiens; HL-60(TB), 10 μM, one-dose; read-out: Growth percent
MDA-MB231ATCC = assay: NCI60 five-dose screen; settings: Homo sapiens, MDA-MB-231; MDA-MB231ATCC, Breast Cancer, five-dose; read-out: GI50
RPMI-8226 = assay: NCI60 five-dose screen; settings: Homo sapiens; RPMI-8226, Leukemia, five-dose; read-out: GI50
HCC-2998 [11] = assay: NCI60 five-dose screen; settings: Homo sapiens; HCC-2998, Colon Cancer, five-dose; read-out: GI50

With CC[C@]12C=CCN3CC[C@@]4(c5ccc(OC)cc5N(C)[C@H]4[C@@](O)(C(=O)OC)[C@@H]1OC(=O)CCC[P+](c1ccccc1)(c1ccccc1)c1ccccc1)[C@@H]32 [compound 3, reference compound] the activity at 10 µM (K-562) was 10.4%, the activity at 10 µM (A549/ATCC) was 13.4% and the GI50 [1] was 1980 nM. It also gave an activity at 10 µM (SW-620) of 17.4%, a GI50 (UO-31) of 10800 nM and an activity at 10 µM (OVCAR-4) of -3.58%. The GI50 (NCI-H23) was 971 nM, the GI50 (SF-295) was 1450 nM and the GI50 (Prostate Cancer panel) was 640 nM. For the same compound, the GI50 (SNB-75) was 750 nM, the GI50 (MALME-3M) was 283 nM and the activity at 10 µM (SK-OV-3 [2]) was -21%. The activity at 10 µM (CCRF-CEM) was 11.2%, the GI50 (HT29) was 266 nM and the activity at 10 µM (LOX IMVI) was 8.81%. It also gave a GI50 (OVCAR-8) of 1270 nM, an activity at 10 µM (EKVX) of 10.3% and an activity at 10 µM (MDA-MB-435) of -21.6%. It also gave a GI50 (SK-MEL-2 [3]) of 322 nM, an activity at 10 µM (PC-3 [4]) of 2.13% and a GI50 (OVCAR-3 [5]) of 369 nM. The GI50 (Melanoma panel) was 450 nM, the GI50 (SR) was 346 nM and the GI50 (PC-3 [6]) was 204 nM. The activity at 10 µM (HCC-2998 [7]) was -22.5%, the GI50 (NCI-H522) was 216 nM and the activity at 10 µM (OVCAR-3 [8]) was -2.49%. For the same compound, the activity at 10 µM (SNB-19) was 11%, the GI50 (HOP-92) was 66 nM and the activity at 10 µM (MCF7) was -3.34%. It also gave a GI50 (SK-OV-3 [9]) of 894 nM, a GI50 (SF-539) of 662 nM and an activity at 10 µM (RXF 393) of 28.9%. The activity at 10 µM (SK-MEL-2 [10]) was -65.3%, the activity at 10 µM (HL-60(TB)) was -53.1% and the GI50 (MDA-MB231ATCC) was 406 nM. It also gave a GI50 (RPMI-8226) of 219 nM and a GI50 (HCC-2998 [11]) of 436 nM.
